Results: patent US10745401B2, “Condensed lactam derivative” (Sumitomo Dainippon Pharma Co., Ltd., priority 2018, dated 2020)

Legend:
human 5-HT1A receptor [1] = molecular target: T1, human 5-HT1A receptor (Homo sapiens (Human), UniProt P08908); test: Test 1: binding activity for human 5-HT1A receptor ([3H]8-OH-DPAT, CHO cell membrane fraction)
In short: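 Membranes incubated with [3H]8-OH-DPAT and compound for 60 min at room temperature, then filtered on polyethylenimine-coated glass-fibre plates and counted by liquid scintillation. IC50 from Hill analysis; Ki = IC50/(1+S/Kd), Kd from saturation binding on the same membranes.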

human 5-HT1A receptor [2] = molecular target: T1, human 5-HT1A receptor; test: Test 2: agonist activity for human 5-HT1A receptor ([35S]GTPγS binding); format: biochemical; conditions: for EC50: [35S]GTPγS binding, concentration at which half the activity of Emax was obtained; for Emax at 10 µM: agonist activity in the presence of 10 μM of compound, relative to 100 μmol/L 5-HT
In short: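 [35S]GTPγS binding read-out: after 60 min at room temperature with test compound in GDP buffer, human 5-HT1A receptor CHO membranes were vacuum-filtered and retained radioactivity scintillation-counted. Agonist activity calculated by formula.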

human 5-HT2A receptor [3] = molecular target: T2, human 5-HT2A receptor (Homo sapiens (Human), UniProt P28223); test: Test 1: binding activity for human 5-HT2A receptor ([3H]Ketanserin, CHO cell membrane fraction)
T2 sequence (P28223 whole entry): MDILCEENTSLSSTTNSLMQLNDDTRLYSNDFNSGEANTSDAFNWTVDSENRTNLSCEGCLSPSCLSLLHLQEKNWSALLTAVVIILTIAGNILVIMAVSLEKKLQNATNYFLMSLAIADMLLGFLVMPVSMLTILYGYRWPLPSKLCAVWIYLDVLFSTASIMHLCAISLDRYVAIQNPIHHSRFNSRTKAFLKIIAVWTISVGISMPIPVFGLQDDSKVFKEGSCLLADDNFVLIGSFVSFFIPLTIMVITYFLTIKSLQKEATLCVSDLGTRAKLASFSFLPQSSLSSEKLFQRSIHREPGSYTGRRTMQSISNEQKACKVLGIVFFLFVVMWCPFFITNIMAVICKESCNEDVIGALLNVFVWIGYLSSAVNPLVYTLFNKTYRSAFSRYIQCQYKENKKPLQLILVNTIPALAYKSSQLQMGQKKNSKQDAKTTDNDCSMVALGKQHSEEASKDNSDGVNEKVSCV
Protocol: Test 1: Evaluation of Binding Activity for Human 5-HT1A Receptor, Human 5-HT2A Receptor, and Human D2 Receptor
Binding affinity of the present compound for human 5-HT1A receptor, human 5-HT2A receptor, and human D2 receptor was measured by the following procedures.
Each mixture was incubated at room temperature for 60 minutes. Then, the mixture was added quickly on a glassfiber filter plate (Multiscreen FB, Millipore, Inc.) coated with 0.3% aqueous polyethylenimine, and vacuum-filtered. Radioactivity remaining on the filter was measured with a liquid scintillation counter (PerkinElmer, Inc.). Binding inhibition rate was calculated from the following formula.
Ki of each compound was calculated from the following formula. Binding inhibition constant (Ki)=IC50/(1+S/Kd) wherein S is concentration of ligand; Kd is a binding dissociation constant of ligand to membrane, which is calculated from a saturated binding experiment conducted with the same cell membrane. A small Ki value means strong binding ability to a receptor.

human D2 receptor = human D2 receptor (Homo sapiens (Human), UniProt P14416); test: Test 1: binding activity for human D2 receptor ([3H]Spiperone, CHO cell membrane fraction); conditions: for Ki: human D2 receptor, [3H]Spiperone; for D2 Ki/5-HT1A Ki / D2 Ki/5-HT2A Ki: selectivity ratio
Chain of human D2 receptor (P14416 whole entry): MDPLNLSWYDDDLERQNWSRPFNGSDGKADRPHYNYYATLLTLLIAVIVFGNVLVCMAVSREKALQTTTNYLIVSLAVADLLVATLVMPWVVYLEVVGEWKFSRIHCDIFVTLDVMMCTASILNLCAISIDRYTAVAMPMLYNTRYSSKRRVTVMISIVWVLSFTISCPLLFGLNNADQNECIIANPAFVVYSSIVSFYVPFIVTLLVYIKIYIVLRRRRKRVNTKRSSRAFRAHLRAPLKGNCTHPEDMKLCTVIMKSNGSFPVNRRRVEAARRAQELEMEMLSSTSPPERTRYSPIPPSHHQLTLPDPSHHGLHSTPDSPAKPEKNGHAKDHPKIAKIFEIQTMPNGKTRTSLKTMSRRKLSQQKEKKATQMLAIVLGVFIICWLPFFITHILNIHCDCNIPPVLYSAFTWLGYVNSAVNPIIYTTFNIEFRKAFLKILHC
In short: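 Compound displacement of [3H]ketanserin at 5-HT2A or [3H]spiperone at D2 was measured in CHO membrane fractions after 60 min at room temperature, with filtration and scintillation counting. IC50 was converted to Ki by Cheng–Prusoff using ligand concentration and Kd from saturation binding.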

human 5-HT2A receptor [4] = molecular target: T2, human 5-HT2A receptor; test: Test 3: antagonist activity for human 5-HT2A receptor (aequorin luminescence, CHO-K1 cells); format: cell-based; conditions: for IC50: CHO-K1 cells, 1 nmol/L 5-HT
Protocol: Test 3: Evaluation of Antagonist Activity for Human 5-HT2A Receptor
Aequorin, Gα16 protein, and each receptor were transiently expressed in CHO-K1 cells (Chinese hamster ovary). […] Each compound dissolved in DMSO was added thereto, and changes in luminescence were measured by FDSS/μCELL functional drug screening system (Hamamatsu Photonics K.K.). Antagonist activity was calculated from the following formula. Antagonist activity (%)=100×{(Luminescence of well in the presence of 1 nmol/L 5-HT−Luminescence of well containing solvent)−(Luminescence of well in the presence of test compound and 1 nmol/L 5-HT−Luminescence of well containing solvent)}/(Luminescence of well in the presence of 1 nmol/L 5-HT−Luminescence of well containing solvent)

[5] = Test 4: metabolic stability test in human hepatic microsome; format: in vitro ADME; conditions: 0.1 mg/mL microsome, 0.1 μmol/L compound, 37° C., 30 minutes
In short: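 LC-MS quantified remaining parent after 30 min, 37° C, in pH 7.4 25 mmol/L phosphate containing 0.1 mg/mL human hepatic microsomes, 3.2 mmol/L NADPH and 0.1 μmol/L test compound. Value given as −LN(residual ratio)/30/0.1, mL/min/mg protein.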

hERG channel = hERG channel (Homo sapiens (Human), UniProt Q12809); test: Test 6-1: inhibitory activity for hERG channel (auto patch clamp, Qpatch); format: cell-based; conditions: for IC50: whole cell auto patch clamp, hERG-CHO cells, read-out: hERG inhibition IC50
Chain of hERG channel (Q12809 whole entry): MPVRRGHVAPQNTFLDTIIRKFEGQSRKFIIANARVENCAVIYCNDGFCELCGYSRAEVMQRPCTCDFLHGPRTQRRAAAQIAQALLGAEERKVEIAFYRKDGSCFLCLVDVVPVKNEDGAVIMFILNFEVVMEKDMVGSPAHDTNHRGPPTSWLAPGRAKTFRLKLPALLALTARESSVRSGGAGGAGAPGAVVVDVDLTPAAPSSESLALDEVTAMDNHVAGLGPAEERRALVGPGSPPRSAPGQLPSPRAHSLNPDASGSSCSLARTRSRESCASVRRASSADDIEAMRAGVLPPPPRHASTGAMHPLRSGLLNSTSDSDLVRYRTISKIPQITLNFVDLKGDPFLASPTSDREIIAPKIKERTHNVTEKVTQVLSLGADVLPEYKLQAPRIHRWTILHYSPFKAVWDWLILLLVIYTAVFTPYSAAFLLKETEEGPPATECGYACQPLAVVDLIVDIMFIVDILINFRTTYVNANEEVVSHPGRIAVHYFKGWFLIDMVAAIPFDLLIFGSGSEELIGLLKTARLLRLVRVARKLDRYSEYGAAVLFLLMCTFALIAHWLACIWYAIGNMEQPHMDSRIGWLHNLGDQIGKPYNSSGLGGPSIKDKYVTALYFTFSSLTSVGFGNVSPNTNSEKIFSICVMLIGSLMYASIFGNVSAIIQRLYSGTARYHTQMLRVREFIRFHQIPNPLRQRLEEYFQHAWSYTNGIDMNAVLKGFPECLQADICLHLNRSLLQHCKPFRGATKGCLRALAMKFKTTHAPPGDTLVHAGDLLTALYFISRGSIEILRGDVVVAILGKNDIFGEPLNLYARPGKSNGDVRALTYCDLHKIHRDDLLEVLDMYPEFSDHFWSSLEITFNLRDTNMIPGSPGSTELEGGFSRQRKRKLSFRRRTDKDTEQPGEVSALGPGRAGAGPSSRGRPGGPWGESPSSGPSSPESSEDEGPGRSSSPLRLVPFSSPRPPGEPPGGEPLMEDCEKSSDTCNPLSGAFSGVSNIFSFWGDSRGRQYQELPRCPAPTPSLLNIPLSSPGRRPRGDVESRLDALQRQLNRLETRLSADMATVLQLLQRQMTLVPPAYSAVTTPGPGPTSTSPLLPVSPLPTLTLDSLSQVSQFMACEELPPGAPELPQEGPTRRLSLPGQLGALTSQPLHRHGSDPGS
In short: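 Whole-cell patch clamp on an automated system using CHO cells stably expressing human hERG (IKr); 15 s pulse interval. Four increasing compound concentrations applied cumulatively; mean peak tail current from last 3 stimulations per concentration used. IC50 from inhibition versus pre-compound current, fitted by Hill equation.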

T1 sequence (P08908 whole entry): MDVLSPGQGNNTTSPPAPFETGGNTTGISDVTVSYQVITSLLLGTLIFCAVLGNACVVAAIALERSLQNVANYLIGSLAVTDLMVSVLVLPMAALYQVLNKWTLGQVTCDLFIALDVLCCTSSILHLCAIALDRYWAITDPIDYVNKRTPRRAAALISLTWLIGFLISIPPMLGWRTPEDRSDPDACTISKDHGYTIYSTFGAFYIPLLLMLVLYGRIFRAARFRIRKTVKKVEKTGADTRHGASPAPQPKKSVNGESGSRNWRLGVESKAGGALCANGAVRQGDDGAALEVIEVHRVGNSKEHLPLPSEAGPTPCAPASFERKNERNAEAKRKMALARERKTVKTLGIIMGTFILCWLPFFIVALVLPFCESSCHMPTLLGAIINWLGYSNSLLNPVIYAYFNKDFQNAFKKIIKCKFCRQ

Structure (SMILES) | Ki (human 5-HT1A receptor [1]) | EC50 (human 5-HT1A receptor [2]) | Emax at 10 µM (human 5-HT1A receptor [2]) | Ki (human 5-HT2A receptor [3]) | Ki (human D2 receptor) | D2 Ki/5-HT1A Ki (human D2 receptor) | D2 Ki/5-HT2A Ki (human D2 receptor) | IC50 (human 5-HT2A receptor [4]; aequorin luminescence) | Metabolic stability in human hepatic microsome [5] | IC50 (hERG channel) | IC50 (human 5-HT2A receptor [4]) | activity at 10 µM (human 5-HT2A receptor [4]; CHO-K1) | hERG inhibition IC50 (nmol/L)/5-HT1A Ki (nmol/L) (hERG channel; ratio of hERG IC50 to 5-HT1A Ki) | hERG inhibition IC50 (nmol/L)/5-HT2A Ki (nmol/L) (hERG channel; ratio of hERG IC50 to 5-HT2A Ki)
Cn1cc2c(n1)CCN(CCN1CCC(c3noc4ccccc34)C1)C2=O (stereo not shown) [Example 174] | 78.1 nM | 193 nM | 50% | 71.7 nM | > 10000 nM | >128.0 | >139.5 | 723 nM |  |  |  |  |  | 
O=C1c2ncccc2CCN1CCN1CCC(c2noc3ccccc23)CC1 [Example 22, 7-{2-[4-(1,2-Benzoisoxazol-3-yl)piperidin-1-yl]ethyl}-6,7-dihydro-1,7-naphthyridin-8(5H)-one] |  |  | 52% | 4.4 nM | 2600 nM |  |  |  | 0.039 mL/min/mg protein | 1900 nM | 94 nM |  |  | 
Cc1cccc2c(C3CCN(CCN4CCc5cccnc5C4=O)CC3)noc12 [Example 120] | 340 nM | 630 nM |  | 91 nM | > 10000 nM |  |  | 912 nM |  |  |  |  |  | 
COc1ccc2onc(C3CCN(CCN4CCc5cccnc5C4=O)CC3)c2c1 [Example 142] | 1.83 nM | 8.8 nM | 54% | 164 nM | > 10000 nM | >5452.0 | >61.0 | 3910 nM |  |  |  |  |  | 
CC1CN(CCN2CCC(c3noc4ccccc34)CC2)C(=O)c2ccn(C)c21 (stereo not shown) [Example 82] |  |  | 61% | 0.87 nM |  |  |  |  | 0.072 mL/min/mg protein | 1900 nM | 46 nM |  |  | 
O=C1c2ncccc2CCN1CCN1CCC(c2noc3cccc(F)c23)CC1 [Example 141] | 4.16 nM | 30 nM | 44% | 173 nM | > 10000 nM | >2405.7 | >57.8 | 976 nM |  |  |  |  |  | 
Cn1ncc2c1CCCC(CCN1CCC(c3noc4ccccc34)CC1)C2=O (stereo not shown) [Example 30] |  |  | 42% | 0.76 nM |  |  |  |  | 0.065 mL/min/mg protein | 900 nM | 43 nM |  |  | 
Cn1ccc2c1CCCN(CCN1CCN(c3nsc4ccccc34)CC1)C2=O [Example 165] |  |  | 44% | 1.2 nM |  |  |  | 15.4 nM | 0.265 mL/min/mg protein | 7900 nM |  |  |  | 
Cc1nc2c(o1)CCCN(CCN1CCN(c3nsc4ccccc34)CC1)C2=O [Example 52] |  |  | 77% | 4.7 nM |  |  |  |  | 0.043 mL/min/mg protein | 4900 nM | 12 nM |  |  | 
Cc1noc2c1C(=O)N(CCN1CCN(c3nsc4ccccc34)CC1)CC2 [Example 34] |  |  | 54% | 0.7 nM |  |  |  |  | 0.124 mL/min/mg protein | 2500 nM | 8 nM |  |  | 
O=C1c2ncccc2CCN1CCN1CCC(c2noc3c(F)cccc23)CC1 [Example 140] | 168 nM | 2300 nM | 27% | 118 nM | > 10000 nM | >59.5 | >84.7 | 373 nM |  |  |  |  |  | 
Cc1c2c(nn1C)CCN(CCN1CCN(c3noc4ccccc34)CC1)C2=O [Example 171] |  |  | 56% | 2.6 nM |  |  |  | 45.9 nM | <0.05 mL/min/mg protein | 6600 nM |  |  |  | 
O=C1c2ncccc2CCN1CCN1CCC(c2noc3cc(F)c(F)cc23)CC1 [Example 148] | 156 nM |  |  | 43.2 nM |  |  |  |  |  |  |  | 45% |  | 
Cn1cnc2c1CCCN(CCN1CCC(c3noc4ccccc34)CC1)C2=O [Example 101, 5-{2-[4-(1,2-Benzoisoxazol-3-yl)piperidin-1-yl]ethyl}-1-methyl-5,6,7,8-tetrahydroimidazo[4,5-c]azepin-4(1H)-one] | 60.1 nM | 612 nM | 47% | 1.9 nM | 1020 nM | 17 | 538 |  |  | 4100 nM | 46 nM |  | 68 | 2165
O=C1c2ncccc2CCC1CCN1CCN(c2nsc3ccccc23)CC1 (stereo not shown) [Example 25] |  |  | 57% | 3.01 nM |  |  |  |  | 0.398 mL/min/mg protein | 400 nM | 5.54 nM |  |  | 
Cc1ncc2c(=O)n(CCN3CCN(c4noc5ccccc45)CC3)ccc2n1 [Example 193, 6-{2-[4-(1,2-Benzoisoxazol-3-yl)piperazin-1-yl]ethyl}-2-methylpyrido[4,3-d]pyrimidin-5(6H)-one] | 387 nM | 756 nM | 27% | 122 nM | > 10000 nM | >25.8 | >81.7 | 143 nM |  |  |  |  |  | 
Cc1nc2c(o1)C(=O)N(CCN1CCN(c3nsc4ccccc34)CC1)CC2 [Example 45] |  |  | 65% | 3.1 nM |  |  |  |  | 0.032 mL/min/mg protein | 7000 nM | 27 nM |  |  | 
O=c1c2cnc(C(F)(F)F)cc2ccn1CCN1CCN(c2noc3ccccc23)CC1 [Example 173] | 38.6 nM | 40.8 nM | 50% | 22.8 nM | > 10000 nM | >259.1 | >438.0 | 184 nM |  |  |  |  |  | 
Cn1cc2c(n1)C(=O)N(CCN1CCN(c3nsc4ccccc34)CC1)CCC2 [Example 49] |  |  | 64% | 1.8 nM |  |  |  |  | 0.063 mL/min/mg protein | 5900 nM | 7.02 nM |  |  | 
COc1ccc2c(C3CCN(CCN4CCc5cccnc5C4=O)CC3)noc2c1 [Example 149] | 184 nM | 719 nM | 16% | 217 nM | > 10000 nM | >54.3 | >46.1 | 267 nM |  |  |  |  |  | 
CC1CN(CCN2CCN(c3noc4ccccc34)CC2)C(=O)c2ccn(C)c21 (stereo not shown) [Example 83] |  |  | 61% | 4 nM |  |  |  |  | 0.135 mL/min/mg protein | 8000 nM | 49 nM |  |  | 
O=c1c2cccnc2ccn1CCN1CCN(c2noc3ccccc23)CC1 [Example 115] |  |  | 37% | 1.07 nM | > 10000 nM |  |  | 4.28 nM | <0.05 mL/min/mg protein | 5000 nM |  |  |  | 
O=C1c2cnc(C(F)(F)F)cc2CCN1CCN1CCN(c2nsc3ccccc23)CC1 [Example 110, 2-{2-[4-(1,2-Benzoisothiazol-3-yl)piperazin-1-yl]ethyl}-6-(trifluoromethyl)-3,4-dihydro-2,7-naphthyridin-1(2H)-one] |  |  | 65% | 2.6 nM |  |  |  |  | 0.353 mL/min/mg protein | 2400 nM | 42.4 nM |  |  | 
O=c1c2cccnc2ccn1CCN1CCN(c2nsc3ccccc23)CC1 [Example 10] | 20 nM | 119 nM |  | 0.49 nM |  |  |  |  |  |  | 0.71 nM |  |  | 
O=C1c2ncccc2CCN1CCN1CCN(c2noc3ccc(F)cc23)CC1 [Example 147] | 124 nM | 436 nM |  | 124 nM | > 10000 nM |  |  | 415 nM |  |  |  |  |  | 
